Test results from patent US11122997B2, “Modulating the aryl hydrocarbon receptor system to treat major depressive disorder” (Mayo Foundation for Medical Education and Research, priority 2015, dated 2021).

Experiments:
U251 glioma cells = test: Ketamine treatment of U251 glioma cell culture, mRNA (RT-qPCR) and protein (Western blot) levels; type: cell-based, human; details: U251 glia
Method: (§1) Lysates obtained from cells subjected to knockdown or overexpression were used to isolate total RNA (Zymo Research). The purity of the extracted RNA samples was assessed using a Nanodrop instrument (Thermo Scientific). All samples had acceptable A260/A280 ratios. AHR, ARNT, AHRR, IDO1, and TDO2 mRNAs levels were quantified by reverse transcription quantitative PCR (RT-qPCR) using a one step RNA-to-Ct™ kit (Life Technologies). The kit contains reagents for converting RNA to cDNA, followed by primer-specific amplification of the desired mRNA (in this case, AHR, ARNT, AHRR, IDO1, and TDO2). GAPDH was used as a reference gene. The quantification of these mRNAs was carried out by employing the ΔΔCt method as described elsewhere (Ingle et al., Cancer Discovery 3(7):812-825, 2013).
(§2) Cell lysates obtained after transfections and from LCLs were subjected to Western immunoblotting to detect levels of AHR, AHRR, ARNT, TDO2, and IDO1 proteins. Briefly, equal amounts of protein (as determined by the BCA protein assay) were loaded onto premade Criterion gels (Bio-Rad) and run for 1 hour at 180V. Proteins from the gels were electrophoretically transferred onto PVDF membranes and blocked at room temperature for 1 hour with 5% non-fat milk dissolved in TBST. The membranes were incubated with primary antibodies (anti-AHR from GeneTex, Inc. (Irvine, Calif.); anti-ARNT and anti AHRR from Sigma (St. Louis, Mo.); TDO2 from OriGene Technologies, Inc.; and IDO1) dissolved in 5% non-fat milk containing TBST at 4° C. overnight with gentle rocking. Following incubation, the membranes were vigorously washed with TB ST several times and then incubated with appropriate secondary antibodies, dissolved in 5% non-fat milk containing TBST at room temperature for 1 hour. Several TBST washes were carried out before ECL reagents were applied to the membranes and radiographic images were captured on X-ray films (GE). B-actin protein also was detected and served as a loading control. Quantification of Western immunoblots was carried out using NIH Image-J (Abramoff et al., Biophotonics Intl 11(7):36-42, 2004), and plotted in GraphPad-Prism software.

iPSC-derived neurons = test: Ketamine treatment of iPSC-derived neuron culture, mRNA and protein levels; type: cell-based, human
Method: Human induced pluripotent stem cells (iPSCs) were purchased from Axol, UK and were differentiated as per the company's protocol. The cells were differentiated for 30 days before being used for lentivirus-mediated knockdown experiments.
as §1, §2

[1] = cited from earlier work
glioblastoma cells = test: Secreted kynurenine in conditioned media of glioblastoma cells (HPLC); details: ketamine vs vehicle (FIG. 10)
[2] = other NMDA receptor antagonists; cited from earlier work
[3] = ketamine vs vehicle (FIGS. 8A, 8B)

Compound | protein level of IDOL (U251 glioma cells; ketamine for 24 hours vs vehicle (FIG. 9A)) | mRNA level of AHRR (U251 glioma cells; [3]) | mRNA level of IDOL (U251 glioma cells; [3]) | mRNA level of TDO2 (U251 glioma cells; [3]) | mRNA level of AHRR (iPSC-derived neurons; ketamine vs vehicle (FIG. 8C)) | mRNA level of IDOL (iPSC-derived neurons; ketamine vs vehicle (FIG. 8C)) | mRNA level of TDO2 (iPSC-derived neurons; ketamine vs vehicle (FIG. 8C)) | protein level of AHRR (iPSC-derived neurons; ketamine vs vehicle (FIG. 9B)) | protein level of IDOL (iPSC-derived neurons; ketamine vs vehicle (FIG. 9B)) | protein level of TDO2 (iPSC-derived neurons; ketamine vs vehicle (FIG. 9B)) | effect on mood ([1]; severely depressed patients) | duration of effects ([1]; single infusion) | secreted KYN in cell culture conditioned media (glioblastoma cells) | ketamine-like antidepressant effects [2]
CNC1(c2ccccc2Cl)CCCCC1=O (stereo not drawn) [Ketamine] | decreased levels | Decreased levels | decreased levels | decreased levels | Decreased levels | decreased levels | decreased levels | Decreased levels | decreased levels | decreased levels | rapid improvement in mood | last for weeks | decreased levels | –
C[C@]12N[C@H](Cc3ccccc31)c1ccccc12 [MK801] | – | – | – | – | – | – | – | – | – | – | – | – | – | fail to demonstrate ketamine-like antidepressant effects
CC12CC3CC(C)(C1)CC(N)(C3)C2 [memantine] | – | – | – | – | – | – | – | – | – | – | – | – | – | fail to demonstrate ketamine-like antidepressant effects
